Reference: BigSolDB 2.1

Details: in isobutyl acetate

O=C(O)c1ccccc1
Details	solubility (mole fraction)
299.73 K	0.14
302.46 K	0.149
307.34 K	0.178
313.61 K	0.208
322.93 K	0.254
328.98 K	0.293
332.24 K	0.311
334.34 K	0.325
335.58 K	0.337
336.03 K	0.338
337.33 K	0.349
337.67 K	0.351
338.76 K	0.358
339.37 K	0.362
339.86 K	0.369
341.48 K	0.379
342.69 K	0.39
343.67 K	0.399

O=C(O)c1cccc(C(=O)O)c1
Details	solubility (mole fraction)
308.15 K	0.000352
313.15 K	0.000388
318.15 K	0.000438
323.15 K	0.000507
328.15 K	0.000691
333.15 K	0.000917
338.15 K	0.0013
343.15 K	0.00166
348.15 K	0.00201
353.15 K	0.00221

O=C(O)c1ccc(C(=O)O)cc1
Details	solubility (mole fraction)
305.15 K	2.38e-05
308.15 K	2.57e-05
313.15 K	3.22e-05
318.15 K	3.41e-05
323.15 K	3.86e-05
328.15 K	5.78e-05
333.15 K	7.07e-05
338.15 K	8.25e-05
343.15 K	8.91e-05
348.15 K	0.000104

Cc1ccc(C(=O)O)cc1
Details	solubility (mole fraction)
300.19 K	0.0328
303.04 K	0.0338
306.43 K	0.0356
310.28 K	0.0421
312.7 K	0.0434
315.36 K	0.0475
319.97 K	0.0525
323.16 K	0.0573
324.84 K	0.0612
325.76 K	0.0653
329.67 K	0.0692
332.48 K	0.0735
333.91 K	0.0774
335.96 K	0.0813
337.49 K	0.0848
339.46 K	0.0885
341.07 K	0.0918
342.68 K	0.0954
344.69 K	0.0994
345.82 K	0.103
347.26 K	0.107
348.41 K	0.11

O=C(O)c1ccccc1C(=O)O
Details	solubility (mole fraction)
300.68 K	0.0011
302.37 K	0.0012
304.42 K	0.0012
309.58 K	0.0016
312.72 K	0.0022
317.36 K	0.0026
326.85 K	0.0032
331.86 K	0.0037
335.27 K	0.005
340.04 K	0.0062
342.69 K	0.0077
348.7 K	0.0092
